Experimental data from US8536202B2, “Triazole-substituted anthranilamides as pesticides” (Bayer Cropscience AG, priority 2010, dated 2013).
Like-named read-outs stand apart in the source and are kept apart here.

Columns and labels:
[1] = log P determination by HPLC on reversed-phase columns (EEC Directive 79/831 Annex V.A8); assay type: physicochemical; details: pH 2.7
How it was run: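 Calibration used unbranched alkan-2-ones of 3 to 16 carbons with known log P, values interpolated linearly from retention times between neighbouring standards. Acidic-range LC-MS run at pH 2.7, eluents aqueous and acetonitrile formic acid 0.1%, linear gradient 10% to 95% acetonitrile.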

[2] = test system: larvae of the mustard beetle (Phaedon cochleariae); test: Phaedon test (PHAECO spray treatment); assay type: in vivo; details: 168 h, 100 g/ha, after 7 days, read-out: activity in %
How it was run: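 Mortality of mustard beetle larvae, expressed as percent killed (100% all, 0% none), assessed 7 days after spraying. Spray liquor made from compound in acetone plus dimethylformamide with alkylaryl polyglycol ether, diluted in emulsifier-containing water to the desired concentration.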

[3] = test system: caterpillars of the armyworm (Spodoptera frugiperda); test: Spodoptera frugiperda test (SPODFR spray treatment); assay type: in vivo; details: 168 h, 100 g/ha, after 7 days, read-out: activity in %
How it was run: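 Percent caterpillar mortality read 7 days after infestation (0% none killed, 100% all killed). Treatment was a spray of the acetone/DMF/emulsifier formulation, water-diluted to test concentration, onto Zea mays leaf discs, allowed to dry before larvae were added.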

[4] = reversed-phase C18 HPLC column, HPLC on reversed-phase columns (C 18), EEC Directive 79/831 Annex V.A8, read-out: logP

| chromatographic logP [1, 4] | Structure (SMILES) | chromatographic logP [1] | pest or weed control at 100 g/ha [2] [%] | pest or weed control at 100 g/ha [3] [%] |
| --- | --- | --- | --- | --- |
| – | CNC(=O)c1cc(Cl)cc(C)c1NC(=O)c1cc(Cn2cc(-c3cccc(Cl)c3)nn2)nn1-c1ncccc1Cl [Example 20] | 3.11 | 100 | 100 |
| – | CNC(=O)c1cc(Cl)cc(C)c1NC(=O)c1cc(Cn2ncc(-c3ccc(F)cc3)n2)nn1-c1ncccc1Cl [Example 24] | 3.23 | 100 | 100 |
| – | CNC(=O)c1cc(Cl)cc(C)c1NC(=O)c1cc(Cn2nccn2)nn1-c1ncccc1Cl [Example 118] | 2.03 | 100 | 100 |
| 4.09 | Cc1cc(C#N)cc(C(=O)NC(C)(C)C)c1NC(=O)c1cc(Cn2nnc3c(Br)cc(OC(F)(F)F)cc32)nn1-c1ncccc1Cl [Example 111] | – | 100 | 100 |
| – | Cc1cc(I)cc(C(=O)NCC2CC2)c1NC(=O)c1cc(Cn2nc(C(F)(F)F)c(C(F)(F)F)n2)nn1-c1ncccc1Cl [Example 401] | 4.52 | 100 | 100 |
| 4.02 | Cc1cc(C#N)cc(C(=O)NC(C)(C)C)c1NC(=O)c1cc(Cn2nnc3cc(Br)c(C(F)(F)F)cc32)nn1-c1ncccc1Cl [Example 109] | – | 100 | 100 |
| – | Cc1cc(Cl)cc(C(=O)NC(C)(C)C)c1NC(=O)c1cc(Cn2cc(-c3ccc(F)cc3)nn2)nn1-c1ncccc1Cl [Example 45] | 3.63 | 100 | 100 |
| – | CCNC(=O)c1cc(Cl)cc(C)c1NC(=O)c1cc(Cn2ncc(C(F)(F)F)n2)nn1-c1ncccc1Cl [Example 138] | 3.26 | 100 | 100 |
| – | Cc1cc(I)cc(C(=O)NC(C)C2CC2)c1NC(=O)c1cc(Cn2ncc(C(F)(F)C(F)(F)F)n2)nn1-c1ncccc1Cl (stereo not drawn) [Example 357] | 4.45 | 100 | 100 |
| – | CNC(=O)c1cc(C#N)cc(C)c1NC(=O)c1cc(Cn2ncc(-c3cccc(Cl)c3)n2)nn1-c1ncccc1Cl [Example 44] | 3.23 | 100 | 100 |
| – | O=C(NCC1CC1)c1cc(Cl)cc(Cl)c1NC(=O)c1cc(Cn2cc(C(F)(F)F)nn2)nn1-c1ncccc1Cl [Example 204] | 3.14 | 100 | 100 |
| – | Cc1cc(I)cc(C(=O)NC2CC2)c1NC(=O)c1cc(Cn2cc(C(F)(F)C(F)(F)F)nn2)nn1-c1ncccc1Cl [Example 310] | 3.49 | 100 | 100 |
| – | CCNC(=O)c1cc(I)cc(C)c1NC(=O)c1cc(Cn2ncc(C(F)(F)F)n2)nn1-c1ncccc1Cl [Example 160] | 3.5 | 100 | 100 |
| 4.21 | Cc1cc(C#N)cc(C(=O)NC(C)(C)C)c1NC(=O)c1cc(Cn2ncc(C(F)(C(F)(F)F)C(F)(F)F)n2)nn1-c1ncccc1Cl [Example 252] | – | 100 | 100 |
| – | CNC(=O)c1cc(C#N)cc(C)c1NC(=O)c1cc(Cn2nnc3cc(Br)ccc32)nn1-c1ncccc1Cl [Example 94] | 2.66 | 100 | 100 |
| – | Cc1cc(Cl)cc(C(=O)NCC2CC2)c1NC(=O)c1cc(Cn2ncc(C(F)(F)F)n2)nn1-c1ncccc1Cl [Example 141] | 3.55 | 100 | 100 |
| – | CNC(=O)c1cc(Cl)cc(C)c1NC(=O)c1cc(Cn2nnc3c(Cl)cc(C(F)(F)F)cc32)nn1-c1ncccc1Cl [Example 89] | 3.59 | 100 | 100 |
| – | O=C(NC1CC1)c1cc(Cl)cc(Cl)c1NC(=O)c1cc(Cn2ncc(C(F)(C(F)(F)F)C(F)(F)F)n2)nn1-c1ncccc1Cl [Example 280] | 3.92 | 100 | 100 |
| – | Cc1cc(C#N)cc(C(=O)NC(C)(C)C)c1NC(=O)c1cc(Cn2ncc(-c3ccc(F)cc3)n2)nn1-c1ncccc1Cl [Example 61] | 3.72 | 100 | 100 |
